Results published in patent US8198273B2, “Compounds and methods for kinase modulation, and indications therefor” (Plexxikon Inc., priority 2009, dated 2012).

Tests used:
[1] = system: SW620 colon adenocarcinoma cells (wild-type B-RAF); test: SW620 cell growth inhibition (ATPlite); assay type: cell-based; settings: Homo sapiens, SW-620, 72 h; SW620, 3 days incubation
Summary of the method: (§1)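 ATPlite luminescence, taken as a cell-number measure, gave IC50 values after a 3-day 37° C, 5% CO2 incubation. Compounds were tested as 8-point threefold titrations, highest final concentration 10 μM, added to cells seeded the day before.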

B-Raf = B-Raf (Homo sapiens, UniProt P15056); test: B-Raf biochemical kinase inhibition (AlphaScreen, biotin-MEK1 substrate); settings: 100 μM ATP
Sequence of B-Raf (P15056 whole entry): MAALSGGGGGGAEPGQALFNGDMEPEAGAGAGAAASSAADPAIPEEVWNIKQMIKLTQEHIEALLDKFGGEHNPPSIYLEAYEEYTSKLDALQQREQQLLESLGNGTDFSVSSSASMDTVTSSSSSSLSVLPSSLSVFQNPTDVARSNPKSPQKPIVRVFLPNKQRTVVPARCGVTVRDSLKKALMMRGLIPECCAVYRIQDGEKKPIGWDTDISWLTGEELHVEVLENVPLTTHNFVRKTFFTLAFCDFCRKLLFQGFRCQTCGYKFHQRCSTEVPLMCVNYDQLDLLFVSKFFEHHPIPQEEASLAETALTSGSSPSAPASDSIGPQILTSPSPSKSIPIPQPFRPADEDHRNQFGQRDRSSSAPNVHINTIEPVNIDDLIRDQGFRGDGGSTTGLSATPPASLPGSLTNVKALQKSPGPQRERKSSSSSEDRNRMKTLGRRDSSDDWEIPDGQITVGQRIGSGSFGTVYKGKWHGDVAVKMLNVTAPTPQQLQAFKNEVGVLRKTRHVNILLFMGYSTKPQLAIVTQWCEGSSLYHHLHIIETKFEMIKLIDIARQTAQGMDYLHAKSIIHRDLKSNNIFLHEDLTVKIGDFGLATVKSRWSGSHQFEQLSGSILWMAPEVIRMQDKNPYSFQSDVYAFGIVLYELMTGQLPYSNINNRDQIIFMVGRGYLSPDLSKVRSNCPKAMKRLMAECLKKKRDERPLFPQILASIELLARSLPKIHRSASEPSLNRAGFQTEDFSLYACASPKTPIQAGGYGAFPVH
Summary of the method: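 Eight-point compound series (made from a 0.1 mM DMSO stock) tested against each Raf enzyme with biotin-MEK1 substrate and 100 μM final ATP.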

CYP1A2 = biological target: T1, CYP1A2 (Homo sapiens, UniProt P05177); test: CYP1A2 inhibition (fluorescent substrate); assay type: in vitro ADME; settings: CYP1A2, CEC substrate; read-out: Cyp IC50 1A2
T1 sequence (P05177 1-516): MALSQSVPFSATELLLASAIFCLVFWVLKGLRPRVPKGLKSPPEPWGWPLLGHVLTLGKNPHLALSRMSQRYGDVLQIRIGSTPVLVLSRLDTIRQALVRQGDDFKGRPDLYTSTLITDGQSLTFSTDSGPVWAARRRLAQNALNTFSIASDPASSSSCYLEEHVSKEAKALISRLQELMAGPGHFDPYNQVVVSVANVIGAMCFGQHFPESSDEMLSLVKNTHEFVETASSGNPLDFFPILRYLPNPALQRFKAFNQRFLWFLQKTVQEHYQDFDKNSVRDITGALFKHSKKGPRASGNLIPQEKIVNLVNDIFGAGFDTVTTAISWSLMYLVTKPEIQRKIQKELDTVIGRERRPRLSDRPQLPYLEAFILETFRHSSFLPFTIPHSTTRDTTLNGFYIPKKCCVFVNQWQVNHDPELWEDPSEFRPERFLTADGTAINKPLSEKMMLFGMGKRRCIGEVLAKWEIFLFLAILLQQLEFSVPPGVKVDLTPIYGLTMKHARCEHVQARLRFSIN
Summary of the method: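 10-pt 1:1 serial dilution in co-factor mix (DMSO stock 100 mM); 10 min preincubation, 37 °C; reaction at 37 °C. Readout: fluorescent metabolite of probe substrate. IC50 from signal vs [compound].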

[2] = system: COLO205 colon adenocarcinoma cells (B-Raf V600E); test: COLO205 cell growth inhibition (ATPlite); assay type: cell-based; settings: Homo sapiens, COLO 205, 72 h; COLO205, 3 days incubation
Summary of the method: as §1

Row | SMILES | IC50 [1] | IC50 (B-Raf) | IC50 (CYP1A2) | IC50 [2]
1 | CCCS(=O)(=O)Nc1ccc(F)c(C(=O)c2c[nH]c3ncc(-c4cn[nH]c4)cc23)c1F [P-2174, Propane-1-sulfonic acid {2,4-difluoro-3-[5-(1H-pyrazol-4-yl)-1H-pyrrolo[2,3-b]pyridine-3-carbonyl]-phenyl}-amide] | > 10 µM | < 0.01 µM | > 10 µM | < 1 µM
2 | COc1cnc2[nH]cc(C(=O)c3c(F)ccc(NS(=O)(=O)c4cc(F)ccc4F)c3F)c2c1 [P-2010, N-[2,4-Difluoro-3-(5-methoxy-1H-pyrrolo[2,3-b]pyridine-3-carbonyl)-phenyl]-2,5-difluoro-benzenesulfonamide] | > 10 µM | < 0.1 µM | > 10 µM | < 1 µM
3 | N#Cc1ccnc2[nH]cc(C(=O)c3c(F)ccc(NS(=O)(=O)c4cccc(F)c4)c3F)c12 [P-2039, N-[3-(4-Cyano-1H-pyrrolo[2,3-b]pyridine-3-carbonyl)-2,4-difluoro-phenyl]-3-fluoro-benzenesulfonamide] | > 10 µM | < 0.01 µM | > 10 µM | < 5 µM
4 | CCCS(=O)(=O)Nc1ccc(F)c(C(=O)c2c[nH]c3ncc(-c4ccc(F)nc4)cc23)c1F [P-2155, Propane-1-sulfonic acid {2,4-difluoro-3-[5-(6-fluoro-pyridin-3-yl)-1H-pyrrolo[2,3-b]pyridine-3-carbonyl]-phenyl}-amide] | > 10 µM | < 0.01 µM | > 10 µM | < 1 µM
5 | CCCS(=O)(=O)Nc1ccc(F)c(C(=O)c2c[nH]c3ncc(-c4ccc(S(=O)(=O)CC)cc4)cc23)c1F [P-2218, Propane-1-sulfonic acid {3-[5-(4-ethanesulfonyl-phenyl)-1H-pyrrolo[2,3-b]pyridine-3-carbonyl]-2,4-difluoro-phenyl}-amide] | < 20 µM | < 0.1 µM | > 10 µM | < 0.1 µM
6 | CCCS(=O)(=O)Nc1ccc(F)c(C(=O)c2c[nH]c3ncc(-c4ccc(C#CCN(CC)CC)nc4)cc23)c1F [P-2222, Propane-1-sulfonic acid (3-{5-[6-(3-diethylamino-prop-1-ynyl)-pyridin-3-yl]-1H-pyrrolo[2,3-b]pyridine-3-carbonyl}-2,4-difluoro-phenyl)-amide] | > 10 µM | < 0.01 µM | > 10 µM | < 0.1 µM
7 | CCCS(=O)(=O)Nc1ccc(F)c(C(=O)c2c[nH]c3ncc(-c4ccc(S(=O)(=O)NC5CC5)cc4)cc23)c1F [P-2168, N-Cyclopropyl-4-{3-[2,6-difluoro-3-(propane-1-sulfonylamino)-benzoyl]-1H-pyrrolo[2,3-b]pyridin-5-yl}-benzenesulfonamide] | < 5 µM | < 0.01 µM | > 10 µM | < 0.1 µM
8 | CCCS(=O)(=O)Nc1ccc(F)c(C(=O)c2c[nH]c3ncc(-c4ccc(OCCCN(C)C)nc4)cc23)c1F [P-2178, Propane-1-sulfonic acid (3-{5-[6-(3-dimethylamino-propoxy)-pyridin-3-yl]-1H-pyrrolo[2,3-b]pyridine-3-carbonyl}-2,4-difluoro-phenyl)-amide] | > 10 µM | < 0.01 µM | > 10 µM | < 0.1 µM
9 | Cc1cnc2[nH]cc(C(=O)c3c(F)ccc(NS(=O)(=O)c4cc(F)ccc4F)c3F)c2c1 [P-2015, N-[2,4-Difluoro-3-(5-methyl-1H-pyrrolo[2,3-b]pyridine-3-carbonyl)-phenyl]-2,5-difluoro-benzenesulfonamide] | > 10 µM | < 0.1 µM | > 10 µM | < 1 µM
10 | CCCS(=O)(=O)Nc1ccc(F)c(C(=O)c2c[nH]c3ncc(-c4cnc(N(C)C)nc4)cc23)c1F [P-2196, Propane-1-sulfonic acid {3-[5-(2-dimethylamino-pyrimidin-5-yl)-1H-pyrrolo[2,3-b]pyridine-3-carbonyl]-2,4-difluoro-phenyl}-amide] | > 10 µM | < 0.01 µM | > 10 µM | < 1 µM
